Results published in PubChem BioAssay (NCI).
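Abbreviation: GI50, concentration required for 50% inhibition of growth. At the TGI there is no net growth.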

What was measured:
Test in all cases: NCI tumour cell line growth inhibition, 384-well format; in the data active = GI50 below about 0.43 µM; inactive = the rest
786-0 renal = test system: 786-0 renal
KM12 colon = test system: KM12 colon
DU-145 prostate = test system: DU-145 prostate
MCF7 breast = test system: MCF7 breast
HL-60(TB) leukemia = test system: HL-60(TB) leukemia
SR leukemia = test system: SR leukemia
SNB-75 CNS = test system: SNB-75 CNS
COLO 205 colon = test system: COLO 205 colon
ACHN renal = test system: ACHN renal
SW-620 colon = test system: SW-620 colon
SNB-19 CNS = test system: SNB-19 CNS
LOX IMVI melanoma = test system: LOX IMVI melanoma
HS 578T breast = test system: HS 578T breast
NCI-H23 lung = test system: NCI-H23 lung
NCI-H322M lung = test system: NCI-H322M lung
SK-OV-3 ovarian = test system: SK-OV-3 ovarian
MOLT-4 leukemia = test system: MOLT-4 leukemia
SN12C renal = test system: SN12C renal
TK-10 renal = test system: TK-10 renal
UO-31 renal = test system: UO-31 renal
RPMI-8226 leukemia = test system: RPMI-8226 leukemia
HOP-92 NSCLC = test system: HOP-92 NSCLC
HOP-62 NSCLC = test system: HOP-62 NSCLC
OVCAR-3 ovarian = test system: OVCAR-3 ovarian
HCT-15 colon = test system: HCT-15 colon
OVCAR-8 ovarian = test system: OVCAR-8 ovarian
OVCAR-4 ovarian = test system: OVCAR-4 ovarian
NCI-H226 lung = test system: NCI-H226 lung
MDA-MB-435 melanoma = test system: MDA-MB-435 melanoma
SK-MEL-5 melanoma = test system: SK-MEL-5 melanoma
MDA-MB-468 breast = test system: MDA-MB-468 breast
T-47D breast = test system: T-47D breast
CAKI-1 renal = test system: CAKI-1 renal
SF-539 CNS = test system: SF-539 CNS
SF-268 CNS = test system: SF-268 CNS
SF-295 CNS = test system: SF-295 CNS
A549 NSCLC = test system: A549 NSCLC
UACC-62 melanoma = test system: UACC-62 melanoma
HCT-116 colon = test system: HCT-116 colon
IGROV1 ovarian = test system: IGROV1 ovarian
MALME-3M melanoma = test system: MALME-3M melanoma
PC-3 prostate = test system: PC-3 prostate
SK-MEL-2 melanoma = test system: SK-MEL-2 melanoma
NCI/ADR-RES ovarian = test system: NCI/ADR-RES ovarian
NCI-H522 lung = test system: NCI-H522 lung
HCC-2998 colon = test system: HCC-2998 colon
CCRF-CEM leukemia = test system: CCRF-CEM leukemia

CC1=C(c2cccc(O)c2)[C@H](c2ccc(OCCN3CC(CF)C3)cc2)Oc2ccc(O)cc21
13.2 µM: TGI (HCT-15 colon)
4.35 µM: TGI (MDA-MB-468 breast)
22.3 µM: TGI (SNB-19 CNS)
20.6 µM: TGI (SN12C renal)
2.97 µM: TGI (MOLT-4 leukemia)
19.6 µM: TGI (NCI-H23 lung) | TGI (NCI-H322M lung)
23.1 µM: TGI (NCI-H522 lung)
16.6 µM: TGI (SW-620 colon)
29.8 µM: TGI (NCI/ADR-RES ovarian)
8.69 µM: TGI (COLO 205 colon)
3.23 µM: TGI (SR leukemia) | TGI (HCC-2998 colon)
12.4 µM: TGI (T-47D breast)
16.4 µM: TGI (UACC-62 melanoma)
15.4 µM: TGI (OVCAR-3 ovarian)
3.29 µM: TGI (HL-60(TB) leukemia)
19.4 µM: TGI (NCI-H226 lung)
3.78 µM: TGI (SK-MEL-2 melanoma)
13.5 µM: TGI (CAKI-1 renal)
3.34 µM: TGI (LOX IMVI melanoma)
23.9 µM: TGI (SF-295 CNS)
23.2 µM: TGI (ACHN renal)
7.32 µM: TGI (786-0 renal)
3.07 µM: TGI (SK-MEL-5 melanoma)
17.6 µM: TGI (TK-10 renal)
16.9 µM: TGI (IGROV1 ovarian) | TGI (PC-3 prostate)
15 µM: TGI (HOP-62 NSCLC)
7.79 µM: TGI (SNB-75 CNS)
17.8 µM: TGI (OVCAR-4 ovarian)
18.3 µM: TGI (SK-OV-3 ovarian)
1.97 µM: TGI (MCF7 breast)
inactive: GI50 (786-0 renal) 2.65 µM | GI50 (KM12 colon) 3.21 µM | GI50 (DU-145 prostate) 10.8 µM | GI50 (HL-60(TB) leukemia) 1.86 µM | GI50 (SR leukemia) 1.79 µM | GI50 (SNB-75 CNS) 2.36 µM | GI50 (COLO 205 colon) 3.09 µM | GI50 (ACHN renal) 11.1 µM | GI50 (SW-620 colon) 4.9 µM | GI50 (SNB-19 CNS) 10.5 µM | GI50 (LOX IMVI melanoma) 1.77 µM | GI50 (HS 578T breast) 2.48 µM | GI50 (NCI-H23 lung) 7.02 µM | GI50 (NCI-H322M lung) 6.69 µM | GI50 (SK-OV-3 ovarian) 5.77 µM | GI50 (MOLT-4 leukemia) 1.58 µM | GI50 (SN12C renal) 7.94 µM | GI50 (TK-10 renal) 5.15 µM | GI50 (UO-31 renal) 9.8 µM | GI50 (RPMI-8226 leukemia) 1.82 µM | GI50 (HOP-92 NSCLC) 3.83 µM | GI50 (HOP-62 NSCLC) 4.55 µM | GI50 (OVCAR-3 ovarian) 4.05 µM | GI50 (HCT-15 colon) 3.57 µM | GI50 (OVCAR-8 ovarian) 10.1 µM | GI50 (OVCAR-4 ovarian) 5.79 µM | GI50 (NCI-H226 lung) 6.19 µM | GI50 (MDA-MB-435 melanoma) 10.7 µM | GI50 (SK-MEL-5 melanoma) 1.68 µM | GI50 (MDA-MB-468 breast) 1.94 µM | GI50 (T-47D breast) 1.11 µM | GI50 (CAKI-1 renal) 3.42 µM | GI50 (SF-539 CNS) 2.03 µM | GI50 (SF-268 CNS) 4.24 µM | GI50 (SF-295 CNS) 11.6 µM | GI50 (A549 NSCLC) 9.02 µM | GI50 (UACC-62 melanoma) 4.7 µM | GI50 (HCT-116 colon) 3.62 µM | GI50 (IGROV1 ovarian) 4.88 µM | GI50 (MALME-3M melanoma) 1.64 µM | GI50 (PC-3 prostate) 4.5 µM | GI50 (SK-MEL-2 melanoma) 1.96 µM | GI50 (NCI/ADR-RES ovarian) 16.2 µM | GI50 (NCI-H522 lung) 11.1 µM | GI50 (HCC-2998 colon) 1.54 µM | GI50 (CCRF-CEM leukemia) 2.11 µM
3.05 µM: TGI (MALME-3M melanoma)
10.2 µM: TGI (KM12 colon)
4.02 µM: TGI (RPMI-8226 leukemia)
13.8 µM: TGI (HCT-116 colon)
21.8 µM: TGI (OVCAR-8 ovarian)
4.88 µM: TGI (CCRF-CEM leukemia)
21.2 µM: TGI (A549 NSCLC)
4.26 µM: TGI (SF-539 CNS)
22.6 µM: TGI (MDA-MB-435 melanoma)
12 µM: TGI (HS 578T breast)
21.5 µM: TGI (UO-31 renal)
13.1 µM: TGI (HOP-92 NSCLC)
15.6 µM: TGI (SF-268 CNS)
22.7 µM: TGI (DU-145 prostate)

Cc1cc([N+](=O)[O-])c(NS(=O)(=O)c2cccc(C(=O)O)c2)cc1-c1cccnc1
inactive: GI50 (786-0 renal) > 100 µM | GI50 (KM12 colon) 16.8 µM | GI50 (DU-145 prostate) > 100 µM | GI50 (MCF7 breast) > 100 µM | GI50 (HL-60(TB) leukemia) > 100 µM | GI50 (SR leukemia) > 61.5 µM | GI50 (SNB-75 CNS) > 100 µM | GI50 (COLO 205 colon) > 100 µM | GI50 (ACHN renal) > 100 µM | GI50 (SW-620 colon) > 100 µM | GI50 (SNB-19 CNS) > 100 µM | GI50 (LOX IMVI melanoma) > 100 µM | GI50 (HS 578T breast) > 100 µM | GI50 (NCI-H23 lung) > 100 µM | GI50 (NCI-H322M lung) > 100 µM | GI50 (SK-OV-3 ovarian) > 100 µM | GI50 (MOLT-4 leukemia) > 100 µM | GI50 (SN12C renal) > 100 µM | GI50 (TK-10 renal) > 100 µM | GI50 (UO-31 renal) > 100 µM | GI50 (RPMI-8226 leukemia) > 100 µM | GI50 (HOP-92 NSCLC) > 100 µM | GI50 (HOP-62 NSCLC) > 100 µM | GI50 (OVCAR-3 ovarian) > 100 µM | GI50 (HCT-15 colon) > 100 µM | GI50 (OVCAR-8 ovarian) > 100 µM | GI50 (OVCAR-4 ovarian) > 100 µM | GI50 (NCI-H226 lung) > 100 µM | GI50 (MDA-MB-435 melanoma) > 100 µM | GI50 (SK-MEL-5 melanoma) > 100 µM | GI50 (MDA-MB-468 breast) > 100 µM | GI50 (T-47D breast) > 100 µM | GI50 (CAKI-1 renal) > 100 µM | GI50 (SF-539 CNS) > 100 µM | GI50 (SF-268 CNS) > 100 µM | GI50 (SF-295 CNS) > 100 µM | GI50 (A549 NSCLC) > 100 µM | GI50 (UACC-62 melanoma) > 100 µM | GI50 (HCT-116 colon) > 100 µM | GI50 (IGROV1 ovarian) > 100 µM | GI50 (MALME-3M melanoma) > 100 µM | GI50 (PC-3 prostate) > 100 µM | GI50 (SK-MEL-2 melanoma) > 100 µM | GI50 (NCI/ADR-RES ovarian) > 100 µM | GI50 (NCI-H522 lung) > 100 µM | GI50 (HCC-2998 colon) > 100 µM | GI50 (CCRF-CEM leukemia) > 100 µM
> 100 µM: TGI (786-0 renal) | TGI (KM12 colon) | TGI (DU-145 prostate) | TGI (MCF7 breast) | TGI (HL-60(TB) leukemia) | TGI (SR leukemia) | TGI (SNB-75 CNS) | TGI (COLO 205 colon) | TGI (ACHN renal) | TGI (SW-620 colon) | TGI (SNB-19 CNS) | TGI (LOX IMVI melanoma) | TGI (HS 578T breast) | TGI (NCI-H23 lung) | TGI (NCI-H322M lung) | TGI (SK-OV-3 ovarian) | TGI (MOLT-4 leukemia) | TGI (SN12C renal) | TGI (TK-10 renal) | TGI (UO-31 renal) | TGI (RPMI-8226 leukemia) | TGI (HOP-92 NSCLC) | TGI (HOP-62 NSCLC) | TGI (OVCAR-3 ovarian) | TGI (HCT-15 colon) | TGI (OVCAR-8 ovarian) | TGI (OVCAR-4 ovarian) | TGI (NCI-H226 lung) | TGI (MDA-MB-435 melanoma) | TGI (SK-MEL-5 melanoma) | TGI (MDA-MB-468 breast) | TGI (T-47D breast) | TGI (CAKI-1 renal) | TGI (SF-539 CNS) | TGI (SF-268 CNS) | TGI (SF-295 CNS) | TGI (A549 NSCLC) | TGI (UACC-62 melanoma) | TGI (HCT-116 colon) | TGI (IGROV1 ovarian) | TGI (MALME-3M melanoma) | TGI (PC-3 prostate) | TGI (SK-MEL-2 melanoma) | TGI (NCI/ADR-RES ovarian) | TGI (NCI-H522 lung) | TGI (HCC-2998 colon) | TGI (CCRF-CEM leukemia)
